{"source": "patent US20050059608A1", "about": "“Pharmaceutical compounds” (priority 2001, published 2005)", "key": {"[1]": {"assay": "Hydrolysis in 10% rabbit liver homogenate", "format": "in vitro ADME", "conditions": "10% rabbit liver homogenate (9,000 g supernatant), pH 7.4, 37° C., read-out: t1/2 of hydrolysis in rabbit liver homogenate", "method": "(§1) The HPLC system used consisted of a Beckman System Gold Programmable Solvent Module 126, Beckman System Gold Detector Module 166 with variable wavelength UV detector (set at 254 nm) and a Beckman System Gold Autosampler 507e. Separations were accomplished on a Purospher RP-18 reverse-phase column, 12.5 cm×4.0 mm i.d., 5 μm (Merck, Darmstadt, Germany). The chromatographic conditions were as follows: injection volume, 50 μl; column temperature, 40° C.; flow rate, gradient/isocratic at 1.0 ml/min. The mobile phase consisted of various proportions of methanol/water mixture (90:10) and a citrate/phosphate buffer pH 2.2.\nThe rabbit liver was homogenized with approximately four equivalent volumes of isotonic phosphate buffer at pH 7.4 using an X-1020 homogenizer (Ystral, Germany). The homogenate was centrifuged for 90 min at 9,000 g and 4° C. with a Biofuge 28 RS centrifuge (Heraeus Instruments, Germany). The supernatant was stored at −80° C. until analysis. An appropriate amount was dissolved in one volume of preheated 20% liver homogenate. The solution was then incubated at 37° C. At appropriate time intervals, samples (300 μl) were withdrawn. Samples were pretreated with 300 μl of methanol to terminate enzymatic activity. […] The residue was dissolved in 400 μl of the mobile phase buffer and analyzed by HPLC."}, "[2]": {"assay": "Hydrolysis in aqueous solution (chemical hydrolysis in phosphate buffer)", "format": "physicochemical", "conditions": "aqueous phosphate buffer 0.16 M; for half-life: read-out: Pseudo-first order half-time (t1/2) for chemical hydrolysis (converted)", "method": "as §1\nThe rate of chemical hydrolysis was determined in aqueous phosphate buffer solution (0.16 M) at pH 7.4, 5.0, and 1.2 at 37° C. An appropriate amount was dissolved in 10 ml of preheated buffer and the solution was placed in a thermostatically controlled water bath at 37° C. At appropriate time intervals, samples were taken and analyzed for the remaining codrug by HPLC. Pseudo-first order half-time (t1/2) for the hydrolysis was calculated from the slope of the linear portion of the plotted logarithm of remaining codrug vs. time."}, "[3]": {"conditions": "after oral administration; cited from earlier work"}}}
{"molecule": "CCN(CC)C(=O)/C(C#N)=C/c1cc(OC(=O)N[C@@H](Cc2ccc(O)c(O)c2)C(=O)OC)c(O)c([N+](=O)[O-])c1", "note": "[Example 1, (S)-2-{5-[(E)-2-cyano-2-(diethylcarbamoyl)vinyl]-2-hydroxy-3-nitrophenoxycarbonylamino}-3-(3,4-dihydroxyphenyl)propionic acid methyl ester]", "values": [{"measurement": "half-life", "setting": "[1]", "result": 7, "unit": "min"}, {"measurement": "Pseudo-first order half-time (t1/2) for chemical hydrolysis", "setting": "[2]; pH 1.2, 37° C.", "result": 12.1, "unit": "h"}, {"measurement": "half-life", "setting": "[2]; pH 5.0, 37° C.", "result": 1.4, "unit": "h"}, {"measurement": "half-life", "setting": "[2]; pH 7.4, 37° C.", "result": 1.1, "unit": "h"}]}
{"molecule": "CCN(CC)C(=O)/C(C#N)=C/c1cc(O)c(O)c([N+](=O)[O-])c1", "note": "[entacapone, (E)2-cyano-N,N-diethyl-3-(3,4-dihydroxy-5-nitrophenyl)propenamide]", "values": [{"measurement": "bioavailability of entacapone", "setting": "[3]", "result": "29-46%"}]}
